Laboratory results from patent US20050009840A1 (SUGEN, INC., priority 2003, published 2005).

These molecules were tested against T1, Met kinase domain (GST fusion protein) (Homo sapiens, UniProt P08581) (assay: Met transphosphorylation assay (ELISA, poly(glu-tyr) substrate)). Settings: Table 2; read-out: Met IC50.
T1 construct: Purified GST fusion protein containing the Met kinase domain
Assay type: biochemical
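Also: Cell-free ELISA with plate-bound poly(Glu:Tyr 4:1) phosphorylated by GST-fused Met kinase domain plus ATP and Mn2+, phosphotyrosine detected by anti-phosphotyrosine antibody with HRP and ABTS read-out.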

T1 sequence (P08581 1078-1345 limits assumed): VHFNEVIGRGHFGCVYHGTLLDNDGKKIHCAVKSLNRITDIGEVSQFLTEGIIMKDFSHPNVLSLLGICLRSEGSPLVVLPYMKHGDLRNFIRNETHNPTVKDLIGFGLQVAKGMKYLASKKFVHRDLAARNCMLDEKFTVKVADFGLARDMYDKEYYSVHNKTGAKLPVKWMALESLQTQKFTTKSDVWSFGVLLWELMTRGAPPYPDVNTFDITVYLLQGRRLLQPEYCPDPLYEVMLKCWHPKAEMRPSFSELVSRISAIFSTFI

Compound | IC50 [nM]
CC(Oc1cc(-c2ccc(C(=O)N3CCC[C@@H]3CO)cc2)cnc1N)c1c(Cl)ccc(F)c1Cl (stereo partly drawn) [Example I-308, (4-{6-Amino-5-[1-(2,6-dichloro-3-fluoro-phenyl)-ethoxy]-pyridin-3-yl}-phenyl)-((R)-2-hydroxymethyl-pyrrolidin-1-yl)-methanone] | 33
CCN(CC)CCNC(=O)c1ccc(-c2cnc(N)c(OC(C)c3c(Cl)ccc(F)c3Cl)c2)cc1 (stereo not shown) [Example I-309, 4-{6-Amino-5-[1-(2,6-dichloro-3-fluoro-phenyl)-ethoxy]-pyridin-3-yl}-N-(2-diethylamino-ethyl)-benzamide] | 40
CC(Oc1cc(-c2cccc(C(=O)N3CCN(C)CC3)c2)cnc1N)c1c(Cl)ccc(F)c1Cl (stereo not shown) [Example I-312] | 62
CC(Oc1cc(-c2cccc(C(=O)NC3CCN(C)CC3)c2)cnc1N)c1c(Cl)ccc(F)c1Cl (stereo not shown) [Example I-313, 3-{6-Amino-5-[1-(2,6-dichloro-3-fluoro-phenyl)-ethoxy]-pyridin-3-yl}-N-(1-methyl-piperidin-4-yl) benzamide] | 69
CC(Oc1cc(-c2cccc(C(=O)N3CCC[C@H]3CN3CCCC3)c2)cnc1N)c1c(Cl)ccc(F)c1Cl (stereo partly drawn) [Example I-314, (3-{6-Amino-5-[1-(2,6-dichloro-3-fluoro-phenyl)-ethoxy]-pyridin-3-yl}-phenyl)-((S)-2-pyrrolidin-1-ylmethyl-pyrrolidin-1-yl)-methanone] | 60
CC(=O)N1CCN(CCNC(=O)c2cccc(-c3cnc(N)c(OC(C)c4c(Cl)ccc(F)c4Cl)c3)c2)CC1 (stereo not shown) [Example I-315, N-[2-(4-Acetyl-piperazin-1-yl)-ethyl]-3-{6-amino-5-[1-(2,6-dichloro-3-fluoro-phenyl)-ethoxy]-pyridin-3-yl}-benzamide] | 69
CC(Oc1cc(-c2cccc(C(=O)N3CC[C@H](N)C3)c2)cnc1N)c1c(Cl)ccc(F)c1Cl (stereo partly drawn) [Example I-316, (3-{6-Amino-5-[1-(2,6-dichloro-3-fluoro-phenyl)-ethoxy]-pyridin-3-yl}-phenyl)-((S)-3-amino-pyrrolidin-1-yl)-methanone] | 48
CC(Oc1cc(-c2cccc(C(=O)N3CCC[C@@H]3CN3CCCC3)c2)cnc1N)c1c(Cl)ccc(F)c1Cl (stereo partly drawn) [Example I-318, (3-{6-Amino-5-[1-(2,6-dichloro-3-fluoro-phenyl)-ethoxy]-pyridin-3-yl}-phenyl)-((R)-2-pyrrolidin-1-ylmethyl-pyrrolidin-1-yl)-methanone] | 130
CC(Oc1cc(-c2cccc(C(=O)NCCN3CCCC3)c2)cnc1N)c1c(Cl)ccc(F)c1Cl (stereo not shown) [Example I-319, 3-{6-Amino-5-[1-(2,6-dichloro-3-fluoro-phenyl)-ethoxy]-pyridin-3-yl}-N-(2-pyrrolidin-1-yl-ethyl)-benzamide] | 100
CC(Oc1cc(-c2cccc(C(=O)NCCCN3CCCC3)c2)cnc1N)c1c(Cl)ccc(F)c1Cl (stereo not shown) [Example I-320, 3-{6-Amino-5-[1-(2,6-dichloro-3-fluoro-phenyl)-ethoxy]-pyridin-3-yl}-N-(3-pyrrolidin-1-yl-propyl)-benzamide] | 130
CC(Oc1cc(-c2cccc(C(=O)NCCN3CCOCC3)c2)cnc1N)c1c(Cl)ccc(F)c1Cl (stereo not shown) [Example I-321, 3-{6-Amino-5-[1-(2,6-dichloro-3-fluoro-phenyl)-ethoxy]-pyridin-3-yl}-N-(2-morpholin-4-yl-ethyl)-benzamide] | 180
CC(Oc1cc(-c2cccc(C(=O)N3CCC(N4CCCC4)CC3)c2)cnc1N)c1c(Cl)ccc(F)c1Cl (stereo not shown) [Example I-322, (3-{6-Amino-5-[1-(2,6-dichloro-3-fluoro-phenyl)-ethoxy]-pyridin-3-yl}-phenyl)-(4-pyrrolidin-1-yl-piperidin-1-yl)-methanone] | 71
CCN(CC)CCS(=O)(=O)Nc1ccc(-c2cnc(N)c(OC(C)c3c(Cl)ccc(F)c3Cl)c2)cc1 (stereo not shown) [Example I-323, 2-Diethylamino-ethanesulfonic acid (4-{6-amino-5-[1-(2,6-dichloro-3-fluoro-phenyl)-ethoxy]-pyridin-3-yl}-phenyl)-amide] | 80
CC(Oc1cc(-c2ccc(NS(=O)(=O)CCN3CCCCC3)cc2)cnc1N)c1c(Cl)ccc(F)c1Cl (stereo not shown) [Example I-325] | 89
CC(Oc1cc(-c2ccc(NS(=O)(=O)CCNCC3CC3)cc2)cnc1N)c1c(Cl)ccc(F)c1Cl (stereo not shown) [Example I-326, 2-(Cyclopropylmethyl-amino)-ethanesulfonic acid (4-{6-amino-5-[1-(2,6-dichloro-3-fluoro-phenyl)-ethoxy]-pyridin-3-yl}-phenyl)-amide] | 75
CC(Oc1cc(-c2ccc(NS(=O)(=O)CCN3CC[C@@H](O)C3)cc2)cnc1N)c1c(F)ccc(F)c1Cl (stereo partly shown) [Example I-327] | 93
CC(Oc1cc(-c2ccc(NS(=O)(=O)CCNC3CC3)cc2)cnc1N)c1c(F)ccc(F)c1Cl (stereo not shown) [Example I-328, 2-Cyclopropylamino-ethanesulfonic acid (4-{6-amino-5-[1-(2-chloro-3,6-difluoro-phenyl)-ethoxy]-pyridin-3-yl}-phenyl)-amide] | 160

Compound | IC50 [nM]
CCN(CC)CCS(=O)(=O)Nc1ccc(-c2cnc(N)c(OC(C)c3c(F)ccc(F)c3Cl)c2)cc1 (stereo not shown) [Example I-329, 2-Diethylamino-ethanesulfonic acid (4-{6-amino-5-[1-(2-chloro-3,6-difluoro-phenyl)-ethoxy]-pyridin-3-yl}-phenyl)-amide] | 95
CC(Oc1cc(-c2ccc(C(=O)NCCN3CCOCC3)cc2)cnc1N)c1c(F)ccc(F)c1Cl (stereo not shown) [Example I-331, 4-{6-Amino-5-[1-(2-chloro-3,6-difluoro-phenyl)-ethoxy]-pyridin-3-yl}-N-(2-morpholin-4-yl-ethyl)-benzamide] | 130
CC(Oc1cc(-c2ccc(C(=O)NC3CCN(C)CC3)cc2)cnc1N)c1c(F)ccc(F)c1Cl (stereo not shown) [Example I-332, 4-{6-Amino-5-[1-(2-chloro-3,6-difluoro-phenyl)-ethoxy]-pyridin-3-yl}-N-(1-methyl-piperidin-4-yl)-benzamide] | 79
CC(Oc1cc(-c2ccc(C(=O)N3CC[C@@H](N)C3)cc2)cnc1N)c1c(F)ccc(F)c1Cl (stereo partly drawn) [Example I-334, (4-{6-Amino-5-[1-(2-chloro-3,6-difluoro-phenyl)-ethoxy]-pyridin-3-yl}-phenyl)-((R)-3-amino-pyrrolidin-1-yl)-methanone] | 89
CC(Oc1cc(-c2ccc(C(=O)N3C[C@@H](C)N[C@@H](C)C3)cc2)cnc1N)c1c(F)ccc(F)c1Cl (stereo partly drawn) [Example I-335, (4-{6 Amino-5-[1-(2-chloro-3,6-difluoro-phenyl)-ethoxy]-pyridin-3-yl}-phenyl)-((3R,5S)-3,5-dimethyl-piperazin-1-yl)-methanone] | 90
CC(Oc1cc(-c2ccc(C(=O)NCCCN3CCCC3)cc2)cnc1N)c1c(F)ccc(F)c1Cl (stereo not shown) [Example I-336, 4-{6-Amino-5-[1-(2-chloro-3,6-difluoro-phenyl)-ethoxy]-pyridin-3-yl}-N-(3-pyrrolidin-1-yl-propyl)-benzamide] | 90
CC(Oc1cc(-c2ccc(C(=O)N3CCN(C)CC3)cc2)cnc1N)c1c(F)ccc(F)c1Cl (stereo not shown) [Example I-338, (4-{6-Amino-5-[1-(2-chloro-3,6-difluoro-phenyl)-ethoxy]-pyridin-3-yl}-phenyl)-(4-methyl-piperazin-1-yl)-methanone] | 77
CC(Oc1cc(-c2ccc(C(=O)NCCN3CCCC3)cc2)cnc1N)c1c(F)ccc(F)c1Cl (stereo not shown) [Example I-340, 4-{6-Amino-5-[1-(2-chloro-3,6-difluoro-phenyl)-ethoxy]-pyridin-3-yl}-N-(2-pyrrolidin-1-yl-ethyl)-benzamide] | 86
CC(Oc1cc(-c2ccc(C(=O)N3CC[C@H](N)C3)cc2)cnc1N)c1c(F)ccc(F)c1Cl (stereo partly drawn) [Example I-341, (4-{6-Amino-5-[1-(2-chloro-3,6-difluoro-phenyl)-ethoxy]-pyridin-3-yl}-phenyl)-((S)-3-amino-pyrrolidin-1-yl)-methanone] | 75
CC(Oc1cc(-c2cccc(C(=O)N3C[C@@H](C)N[C@@H](C)C3)c2)cnc1N)c1c(F)ccc(F)c1Cl (stereo partly shown) [Example I-343] | 160
CC(Oc1cc(-c2cccc(C(=O)N3CC[C@@H](N)C3)c2)cnc1N)c1c(F)ccc(F)c1Cl (stereo partly drawn) [Example I-344, (3-{6-Amino-5-[1-(2-chloro-3,6-difluoro-phenyl)-ethoxy]-pyridin-3-yl}-phenyl)-((R)-3-amino-pyrrolidin-1-yl)-methanone] | 120
CC(Oc1cc(-c2cccc(C(=O)NC3CCN(C)CC3)c2)cnc1N)c1c(F)ccc(F)c1Cl (stereo not shown) [Example I-345, 3-{6-Amino-5-[1-(2-chloro-3,6-difluoro-phenyl)-ethoxy]-pyridin-3-yl}-N-(1-methyl-piperidin-4-yl)-benzamide] | 200
CC(Oc1cc(-c2cccc(C(=O)N3CCN(C)CC3)c2)cnc1N)c1c(F)ccc(F)c1Cl (stereo not shown) [Example I-346, (3-{6-Amino-5-[1-(2-chloro-3,6-difluoro-phenyl)-ethoxy]-pyridin-3-yl}-phenyl)-(4-methyl-piperazin-1-yl)-pnl methanone] | 190
CC(Oc1cc(-c2cccc(C(=O)NCCCN3CCCC3)c2)cnc1N)c1c(F)ccc(F)c1Cl (stereo not shown) [Example I-347, 3-{6-Amino-5-[1-(2-chloro-3,6-difluoro-phenyl)-ethoxy]-pyridin-3-yl}-N-(3-pyrrolidin-1-yl-propyl)-benzamide] | 210
CC(Oc1cc(-c2cccc(C(=O)NCCN3CCCC3)c2)cnc1N)c1c(F)ccc(F)c1Cl (stereo not shown) [Example I-348, 3-{6-Amino-5-[1-(2-chloro-3,6-difluoro-phenyl)-ethoxy]-pyridin-3-yl}-N-(2-pyrrolidin-1-yl-ethyl)-benzamide] | 200
CC(Oc1cc(-c2cccc(C(=O)N3CC[C@H](N)C3)c2)cnc1N)c1c(F)ccc(F)c1Cl (stereo partly drawn) [Example I-349, (3-{6-Amino-5-[1-(2-chloro-3,6-difluoro-phenyl)-ethoxy]-pyridin-3-yl}-phenyl)-((S)-3-amino-pyrrolidin-1-yl)-methanone] | 130
CC(Oc1cc(-c2cccc(C(=O)NCCN3CCOCC3)c2)cnc1N)c1c(F)ccc(F)c1Cl (stereo not shown) [Example I-350, 3-{6-Amino-5-[1-(2-chloro-3,6-difluoro-phenyl)-ethoxy]-pyridin-3-yl}-N-(2-morpholin-4-yl-ethyl)-benzamide] | 390
